Measurements: patent US11718611B2, “Benzenesulfonylbenazamide compound for inhibiting BCL-2 protein and composition and use thereof” (Shenzhen TargetRx, Inc., priority 2017, dated 2023)

How the values were obtained:
[1] = Liver microsomal metabolism experiment (metabolic stability); format: in vitro ADME; conditions: pH 7.4; mouse liver microsomes 0.5 mg/mL, compound 1 μM
Method: Microsome assay: mouse liver microsomes: 0.5 mg/mL, Xenotech; coenzyme (NADPH/NADH): 1 mM, Sigma Life Science; magnesium chloride: 5 mM, 100 mM phosphate buffer (pH 7.4).
Preparation of stock solutions: Powder of the compounds were accurately weighed and dissolved in DMSO to 5 mM.
Preparation of phosphate buffer (100 mM, pH7.4): A pre-prepared 0.5M potassium dihydrogen phosphate (150 mL) was mixed with 0.5M dibasic potassium phosphate (700 mL). The pH of the mixture was adjusted to 7.4 with 0.5M dibasic potassium phosphate solution. The mixture was diluted 5-fold with ultrapure water before use, and magnesium chloride was added to obtain a phosphate buffer (100 mM) containing 100 mM potassium phosphate, 3.3 mM magnesium chloride, pH 7.4.
A NADPH regeneration system solution (containing 6.5 mM NADP, 16.5 mM G-6-P, 3 U/mL G-6-P D, 3.3 mM magnesium chloride) was prepared and placed on wet ice prior to use.
Preparation of stop solution: an acetonitrile solution containing 50 ng/mL propranolol hydrochloride and 200 ng/mL tolbutamide (internal standard). 25057.5 μL of phosphate buffer (pH 7.4) was taken into a 50 mL centrifuge tube, to which 812.5 μL mouse liver microsomes were added, and mixed to obtain a liver microsome dilution with a protein concentration of 0.625 mg/mL.
Incubation of the samples: The stock solutions of the respective compounds were respectively diluted to 0.25 mM with an aqueous solution containing 70% acetonitrile, and used as a working solution, ready for use. 398 μL of the dilution of human liver microsomes or rat mouse liver microsomes were added to 96-well incubation plates (N=2), respectively, and 2 μL of 0.25 mM working solution was added and mixed.
Metabolic stability assay: 300 μL of pre-chilled stop solution was added to each well of 96-well deep well plates and placed on ice as stop plates. The 96-well incubation plates and NADPH regeneration system were placed in a 37° C. water bath box, shaken at 100 rpm and pre-incubated for 5 min. 80 μL of incubation solution was taken out from each well of the incubation plates and added to the stop plates, mixed, and replenished with 20 μL of NADPH regeneration system solution as a 0-min sample. 80 μL of NADPH regeneration system solution was added to each well of the incubation plates to start the reaction and start counting. […] Separately, 100 μL of the reaction solutions was taken at 10, 30, and 90 min reaction, respectively, added to stop plates, and vortexed for 3 minutes to terminate the reaction. The stop plates were centrifuged at 5000×g at 4° C. for 10 min. 100 μL of the supernatant was added to a 96-well plate to which 100 μL of distilled water was previously added, mixed, and analyzed by LC-MS/MS.
Data analysis: The peak areas of the corresponding compounds and internal standard were detected by LC-MS/MS system, and the ratio of the peak area of the compounds to the internal standard was calculated.

[2] = Pharmacokinetic experiment in rats; format: in vivo, SD rat; conditions: male SD rats, i.g., 3 mg/kg; for AUC(0-t) / Cmax / MRT / Tmax: rat, plasma, po
Method: Experimental Objective: To investigate the pharmacokinetic behavior of the compounds of the present disclosure after the rats being administered with the test compounds.
Species and strain: SD rat grade: SPF grade
Gender and quantity: male, 6
Experimental procedures: Before blood samples were collected, 20 μL of 2 M sodium fluoride solution (esterase inhibitor) was previously added to an EDTA-K2 anticoagulant tube, dried in an 80° C. oven, and placed in a 4° C. refrigerator.
Rats (male, weighing 187 to 197 g) were randomly divided into 2 groups, and were fasted overnight in the afternoon before the experiment but were allowed to drink water freely. Food was given 4 hours after the administration. Group A was given Venetoclaxr (3 mg/kg), and group B was given example compounds 1 to 7 (3 mg/kg). About 100-200 μL of blood was taken from the orbital vein of rats at 15 min, 30 min, 1, 2, 3, 5, 8 and 10 h after administration, placed in a 0.5 mL Eppendorf tube with EDTA-K2 anticoagulant and mixed immediately. After anticoagulation, the tube was gently inverted 5-6 times as quickly as possible. After the blood was taken, it was placed in an ice box, and then within 30 min, the blood sample was centrifuged for 10 min at 4000 rpm and 4° C. to separate the plasma. Immediately after collection of all plasma, it was stored at −20° C. The concentration of the drug in plasma at each time point was determined after sample collection at all time points.

Row | half-life at 1 μM [1] | microsomal CLint at 1 μM [1] | Cl—pred [2] | F [2] | AUC(0-t) [2] | Cmax [2] | MRT [2] | Tmax [2] | Structure (SMILES)
1 | 1.25 h | 18.4 µL/min/mg | 40.2 mL/min/kg | 7.10% | 4430 ng·h/mL | 680 ng/mL | 5.07 h | 3.33 h | [2H]C([2H])(Nc1ccc(S(=O)(=O)NC(=O)c2ccc(N3CCN(CC4=C(c5ccc(Cl)cc5)CC(C)(C)CC4)CC3)cc2Oc2cnc3[nH]ccc3c2)cc1[N+](=O)[O-])C1CCOCC1 (single isomer, unassigned) [Compound T-3, 4-(4-{[2-(4-chlorophenyl)-4,4-dimethylcyclohex-1-en-1-yl]methyl}piperazin-1-yl)-N-({3-nitro-4-[(tetrahydro-2H-pyran-4-ylmethyl-d2)amino]phenyl}sulfonyl)-2-(1H-pyrrolo[2,3-b]pyridin-5-yloxy)benzamide]
2 | 1.35 h | 17.1 µL/min/mg | 54.7 mL/min/kg | 3.47% | 3060 ng·h/mL | 478 ng/mL | 5.22 h | 3.33 h | CC1(C)CCC(CN2CCN(c3ccc(C(=O)NS(=O)(=O)c4ccc(NCC5CCOCC5)c([N+](=O)[O-])c4)c(Oc4cnc5[nH]ccc5c4)c3)CC2)=C(c2ccc(Cl)cc2)C1 [Venetoclax, 4-(4-{[2-(4-chlorophenyl)-4,4-dimethylcyclohex-1-en-1-yl]methyl}piperazin-1-yl)-N-({3-nitro-4-[(tetrahydro-2H-pyran-4-ylmethyl)amino]phenyl}sulfonyl)-2-(1H-pyrrolo[2,3-b]pyridin-5-yloxy)benzamide, reference compound]
3 | 4.07 h | 5.7 µL/min/mg | – | – | – | – | – | – | [2H]C([2H])(C1=C(c2ccc(Cl)cc2)CC(C)(C)CC1)N1CCN(c2ccc(C(=O)NS(=O)(=O)c3ccc(NCC4CCOCC4)c([N+](=O)[O-])c3)c(Oc3cnc4[nH]ccc4c3)c2)CC1 (single isomer, unassigned) [Compound T-1, 4-(4-{[2-(4-chlorophenyl)-4,4-dimethylcyclohex-1-en-1-yl]methyl-d2}piperazin-1-yl)-N-({3-nitro-4-[(tetrahydro-2H-pyran-4-ylmethyl)amino]phenyl}sulfonyl)-2-(1H-pyrrolo[2,3-b]pyridin-5-yloxy)benzamide]
4 | 5.11 h | 4.5 µL/min/mg | – | – | – | – | – | – | [2H]C([2H])(Nc1ccc(S(=O)(=O)NC(=O)c2ccc(N3C([2H])([2H])C([2H])([2H])N(C([2H])([2H])C4=C(c5ccc(Cl)cc5)CC(C)(C)CC4)C([2H])([2H])C3([2H])[2H])cc2Oc2cnc3[nH]ccc3c2)cc1[N+](=O)[O-])C1CCOCC1 (single isomer, unassigned) [Compound T-7, 4-(4-{[2-(4-chlorophenyl)-4,4-dimethylcyclohex-1-en-1-yl]methyl-d2}piperazin-1-yl-2,2,3,3,5,5,6,6-d8)-N-({3-nitro-4-[(tetrahydro-2H-pyran-4-ylmethyl-d2)amino]phenyl}sulfonyl)-2-(1H-pyrrolo[2,3-b]pyridin-5-yloxy)benzamide]
5 | 1.12 h | 20.7 µL/min/mg | – | – | – | – | – | – | [2H]C([2H])(C1=C(c2ccc(Cl)cc2)CC(C)(C)CC1)N1C([2H])([2H])C([2H])([2H])N(c2ccc(C(=O)NS(=O)(=O)c3ccc(NCC4CCOCC4)c([N+](=O)[O-])c3)c(Oc3cnc4[nH]ccc4c3)c2)C([2H])([2H])C1([2H])[2H] (single isomer, unassigned) [Compound T-4, 4-(4-{[2-(4-chlorophenyl)-4,4-dimethylcyclohex-1-en-1-yl]-methyl-d2}piperazin-1-yl-2,2,3,3,5,5,6,6-d8)-N-({3-nitro-4-[(tetrahydro-2H-pyran-4-ylmethyl)amino]phenyl}sulfonyl)-2-(1H-pyrrolo[2,3-b]pyridin-5-yloxy)benzamide]
6 | 1.52 h | 15.2 µL/min/mg | – | – | – | – | – | – | [2H]C1([2H])N(CC2=C(c3ccc(Cl)cc3)CC(C)(C)CC2)C([2H])([2H])C([2H])([2H])N(c2ccc(C(=O)NS(=O)(=O)c3ccc(NCC4CCOCC4)c([N+](=O)[O-])c3)c(Oc3cnc4[nH]ccc4c3)c2)C1([2H])[2H] (single isomer, unassigned) [Compound T-5, 4-(4-{[2-(4-chlorophenyl)-4,4-dimethylcyclohex-1-en-1-yl]methyl}piperazin-1-yl-2,2,3,3,5,5,6,6-d8)-N-({3-nitro-4-[(tetrahydro-2H-pyran-4-ylmethyl)amino]phenyl}sulfonyl)-2-(1H-pyrrolo[2,3-b]pyridin-5-yloxy)benzamide]
7 | 2.38 h | 9.7 µL/min/mg | – | – | – | – | – | – | [2H]C([2H])(Nc1ccc(S(=O)(=O)NC(=O)c2ccc(N3CCN(C([2H])([2H])C4=C(c5ccc(Cl)cc5)CC(C)(C)CC4)CC3)cc2Oc2cnc3[nH]ccc3c2)cc1[N+](=O)[O-])C1CCOCC1 (single isomer, unassigned) [Compound T-2, 4-(4-{[2-(4-chlorophenyl)-4,4-dimethylcyclohex-1-en-1-yl]methyl-d2}piperazin-1-yl)-N-({3-nitro-4-[(tetrahydro-2H-pyran-4-ylmethyl-d2)amino]phenyl}sulfonyl)-2-(1H-pyrrolo[2,3-b]pyridin-5-yloxy)benzamide]
8 | 1.3 h | 17.8 µL/min/mg | – | – | – | – | – | – | [2H]C([2H])(Nc1ccc(S(=O)(=O)NC(=O)c2ccc(N3C([2H])([2H])C([2H])([2H])N(CC4=C(c5ccc(Cl)cc5)CC(C)(C)CC4)C([2H])([2H])C3([2H])[2H])cc2Oc2cnc3[nH]ccc3c2)cc1[N+](=O)[O-])C1CCOCC1 (single isomer, unassigned) [Compound T-6, 4-(4-{[2-(4-chlorophenyl)-4,4-dimethylcyclohex-1-en-1-yl]methyl}piperazin-1-yl-2,2,3,3,5,5,6,6-d8)-N-({3-nitro-4-[(tetrahydro-2H-pyran-4-ylmethyl-d2)amino]phenyl}sulfonyl)-2-(1H-pyrrolo[2,3-b]pyridin-5-yloxy)benzamide]
